Reference: patent US20240246918A1, “COMPOUNDS AND COMPOSITIONS AS EIF4E INHIBITORS AND THE USES THEREOF” (Ribometrix, Inc., priority 2022, published 2024)

Tests used:
[1] = test system: cyclin D1 protein levels in COLO 205 cells; assay: Cyclin D1 cellular inhibition assay (HTRF, 6 hours); assay type: cell-based; conditions: Homo sapiens, COLO 205, 6 h, 6 hours of compound treatment, Cyclin D1 protein levels by HTRF, read-out: COLO 205 6 h Cyclin D1 TR-FRET IC50
Procedure: The effect of compound treatment on cyclin D1 protein levels in COLO 205 cells was assessed, as follows. Test compound plates were prepared with a Tecan D300e Digital Dispenser as 11-point concentration-response curves with a final DMSO concentration of 1%. COLO 205 (ATCC, CCL-222) colorectal tumor cells were seeded to assay-ready plates in RPMI-1640 medium supplemented with 10% FBS at 20,000 cells in a volume of 6 microliters per well. After 6 hours of compound treatment, cells were lysed and Cyclin D1 protein levels were assessed by an HTRF assay (PerkinElmer #64CYCD1ITPEG), according to the manufacturer's protocol. Time-resolved fluorescence was measured using a Clariostar Plus microplate reader (BMG Labtech) or equivalent. After normalization to the average of DMSO control and maximum inhibition control wells, concentration-response data were plotted and standard 4-parameter curve fitting (GraphPad Prism v9.4.1) was utilized to determine IC50 values.

[2] = test system: COLO 205 colorectal tumor cells; assay: Tumor cell viability inhibition assay (CellTiter-Glo 2.0, 72 hours); assay type: cell-based; conditions: Homo sapiens, COLO 205, 72 h, COLO 205 cell viability
How it was run: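 COLO 205 cells (1500/well, RPMI-1640 + 10% FBS) exposed for 72 h to an 11-point, 4-fold dilution series; cellular ATP read by CellTiter-Glo 2.0 luminescence. Data normalized to DMSO and maximum-inhibition controls; IC50 from 4-parameter curve fit.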

[3] = target: T1, human eIF4E protein (Homo sapiens, UniProt P06730); assay: Biochemical competitive binding assay (TR-FRET competition, EDA-m7GDP-ATTO-647N probe); conditions: read-out: hEIF4E TR-FRET IC50
T1 construct: purchased Novus NBP-45314
How it was run: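 His-tagged human eIF4E (4 nM) was preincubated with Eu-anti-His antibody (2.5 nM) and added to compound (11-point, 4-fold dilutions) for 15 min. Then 5 nM EDA-m7GDP-ATTO-647N was added for 15 min, in HEPES pH 7.5, 100 mM KCl. The 665/620 TR-FRET ratio was normalized to controls, and IC50 was taken from 4-parameter fits.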

T1 sequence (P06730 whole entry): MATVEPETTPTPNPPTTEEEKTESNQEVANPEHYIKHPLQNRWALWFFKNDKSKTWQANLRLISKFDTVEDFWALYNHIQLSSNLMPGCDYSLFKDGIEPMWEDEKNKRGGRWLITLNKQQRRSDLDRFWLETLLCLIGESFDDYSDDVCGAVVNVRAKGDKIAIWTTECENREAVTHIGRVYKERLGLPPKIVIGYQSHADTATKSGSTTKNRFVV

Structure (SMILES) | IC50 [1] [µM] | IC50 [2] [µM] | IC50 [3] [µM]
COC1CCN(C2CCc3nc(C)n(CCOc4ccc(Cl)cc4-c4cc(C)nc5c(C(=O)NCC(F)F)csc45)c(=O)c3C2)CC1 (stereo not drawn) [Compound 142] | > 20 | 5 to 20 | 0.1 to 0.5
COC1CCN(C2CCc3nc(C)n(CCOc4ccc(Cl)cc4-c4cc(C)nc5c(C(=O)NC6CC(F)(F)C6)csc45)c(=O)c3C2)CC1 (stereo not drawn) [Compound 144] | > 20 | 5 to 20 | 0.5 to 5
Cc1cc(-c2cc(Cl)ccc2OCCn2c(C)nc3c(c2=O)CC(N(C)CC2CC(F)(F)C2)CC3)c2scc(C(=O)NC3CC(F)(F)C3)c2n1 (stereo not drawn) [Compound 145] | > 20 | 5 to 20 | 0.5 to 5
Cc1cc(-c2cc(Cl)ccc2OCCn2c(C)nc3c(c2=O)CC(N(C)CC2CC(F)(F)C2)CC3)c2scc(C(=O)NCC(F)F)c2n1 (stereo not drawn) [Compound 150] | > 20 | 5 to 20 | 0.5 to 5
COC1CCN(C2Cc3c(cc(C)n(CCOc4ccc(Cl)cc4-c4cc(C)nc5c(C(=O)O)csc45)c3=O)C3(CC3)C2)CC1 (stereo not drawn) [Compound 151] | < 5 | < 5 | < 0.1
COC1[C@@H]2CC[C@H]1CN(C1CCc3nc(C)n(CCOc4ccc(Cl)cc4-c4cc(C)nc5c(C(=O)O)csc45)c(=O)c3C1)C2 (stereo partly drawn) [Compound 152] | < 5 | < 5 | < 0.1
Cc1cc(-c2cc(Cl)ccc2OCCn2c(C)nc3c(c2=O)CC(NCC2CC(F)(F)C2)CC3)c2scc(C(=O)O)c2n1 (stereo not drawn) [Compound 153] | 5 to 20 | 5 to 20 | < 0.1
COc1cc(CNC2CCc3nc(C)n(CCOc4ccc(Cl)cc4-c4cc(C)nc5c(C(=O)O)csc45)c(=O)c3C2)ccn1 (stereo not drawn) [Compound 154] | < 5 | < 5 | < 0.1
Cc1cc(-c2cc(Cl)ccc2OCCn2c(C)nc3c(c2=O)CC(N2CCC(C4CC(F)(F)C4)CC2)CC3)c2scc(C(=O)O)c2n1 (stereo not drawn) [Compound 156] | < 5 | < 5 | < 0.1
Cc1cc(-c2cc(Cl)ccc2OCCn2c(C)nc3c(c2=O)CC(N2CCc4ncncc4C2)CC3)c2scc(C(=O)O)c2n1 (stereo not drawn) [Compound 157] | 5 to 20 | 5 to 20 | < 0.1
Cc1cc(-c2cc(Cl)ccc2OCCn2c(C)nc3c(c2=O)CC(N(C)Cc2ccnc(N)n2)CC3)c2scc(C(=O)O)c2n1 (stereo not drawn) [Compound 158, 7-(2-(2-(6-(((2-aminopyrimidin-4-yl)methyl)(methyl)amino)-2-methyl-4-oxo-5,6,7,8-tetrahydroquinazolin-3(4H)-yl)ethoxy)-5-chlorophenyl)-5-methylthieno[3,2-b]pyridine-3-carboxylic acid] | > 20 | > 20 | < 0.1
Cc1cc(-c2cc(Cl)ccc2OCCn2c(C)nc3c(c2=O)CC(N2CCc4[nH]ncc4C2)CC3)c2scc(C(=O)O)c2n1 (stereo not drawn) [Compound 159] | > 20 | > 20 | < 0.1
Cc1cc(-c2cc(Cl)ccc2OCCn2c(C)nc3c(c2=O)CC(N2CCc4cc(C(F)(F)F)ccc4C2)CC3)c2scc(C(=O)O)c2n1 (stereo not drawn) [Compound 160] | < 5 | < 5 | < 0.1
Cc1cc(-c2cc(Cl)ccc2OCCn2c(C)nc3c(c2=O)CC(N2CC4(CCC(F)(F)CC4)C2)CC3)c2scc(C(=O)O)c2n1 (stereo not drawn) [Compound 161] | < 5 | < 5 | < 0.1
Cc1cc(-c2cc(Cl)ccc2OCCn2c(C)nc3c(c2=O)CC(N2CC4(CC=C(F)CC4)C2)CC3)c2scc(C(=O)O)c2n1 (stereo not drawn) [Compound 162] | < 5 | < 5 | < 0.1
Cc1cc(-c2cc(Cl)ccc2OCCn2c(C)nc3c(c2=O)CC(N2CCC(C(F)(F)F)CC2)CC3)c2scc(C(=O)O)c2n1 (stereo not drawn) [Compound 163] | < 5 | < 5 | < 0.1
Cc1cc(-c2cc(Cl)ccc2OCCn2c(C)nc3c(c2=O)CC(N2CCc4ncsc4C2)CC3)c2scc(C(=O)O)c2n1 (stereo not drawn) [Compound 164] | < 5 | < 5 | < 0.1
